Assay results published in the NIST ThermoML archive (doi:10.1021/acs.jced.5b00612).

Conditions: Liquid

CCCCCCCCCCCCCC(=O)OC [methyl tetradecanoate]
viscosity [mPa·s]
Conditions | 303.15 K | 313.15 K | 333.15 K | 353.15 K
101.3 kPa, Falling or rolling sphere viscometry | 3.51 | 2.8 | 1.91 | 1.4
101.3 kPa, quartz crystal resonator | 3.51 | 2.8 | 1.91 | 1.4
10000 kPa, quartz crystal resonator | 3.95 | 3.15 | 2.14 | 1.57
20000 kPa, Falling or rolling sphere viscometry | 4.43 | 3.5 | 2.37 | 1.72
20000 kPa, quartz crystal resonator | 4.45 | 3.5 | 2.37 | 1.74
30000 kPa, quartz crystal resonator | 4.95 | 3.91 | 2.61 | 1.92
40000 kPa, Falling or rolling sphere viscometry | 5.51 | 4.31 | 2.89 | 2.08
40000 kPa, quartz crystal resonator | 5.53 | 4.33 | 2.88 | 2.11
50000 kPa, quartz crystal resonator | 6.11 | 4.79 | 3.16 | 2.29
60000 kPa, Falling or rolling sphere viscometry | – | 5.24 | 3.47 | 2.47
60000 kPa, quartz crystal resonator | 6.79 | 5.26 | 3.46 | 2.5
70000 kPa, quartz crystal resonator | – | 5.74 | 3.76 | 2.71
80000 kPa, Falling or rolling sphere viscometry | – | 6.31 | 4.11 | 2.9
80000 kPa, quartz crystal resonator | – | 6.29 | 4.08 | 2.92
90000 kPa, quartz crystal resonator | – | – | 4.46 | 3.14
100000 kPa, Falling or rolling sphere viscometry | – | 7.54 | 4.82 | 3.38
100000 kPa, quartz crystal resonator | – | – | 4.81 | 3.4

CCCCCCCCCCCCCC(=O)OCC [ethyl tetradecanoate]
viscosity [mPa·s]
Conditions | 293.15 K | 313.15 K | 333.15 K | 353.15 K
101.3 kPa, Falling or rolling sphere viscometry | 4.73 | 2.96 | 2.03 | 1.48
101.3 kPa, quartz crystal resonator | 4.73 | 2.96 | 2.03 | 1.48
10000 kPa, quartz crystal resonator | 5.36 | 3.34 | 2.3 | 1.65
20000 kPa, Falling or rolling sphere viscometry | 6.1 | 3.74 | 2.53 | 1.83
20000 kPa, quartz crystal resonator | 6.08 | 3.71 | 2.54 | 1.84
30000 kPa, quartz crystal resonator | 6.83 | 4.15 | 2.82 | 2.03
40000 kPa, Falling or rolling sphere viscometry | 7.68 | 4.64 | 3.09 | 2.22
40000 kPa, quartz crystal resonator | 7.68 | 4.63 | 3.13 | 2.24
50000 kPa, quartz crystal resonator | – | 5.1 | 3.44 | 2.44
60000 kPa, Falling or rolling sphere viscometry | – | 5.67 | 3.73 | 2.66
60000 kPa, quartz crystal resonator | – | 5.67 | 3.76 | 2.66
70000 kPa, quartz crystal resonator | – | 6.22 | 4.08 | 2.91
80000 kPa, Falling or rolling sphere viscometry | – | 6.86 | 4.46 | 3.16
80000 kPa, quartz crystal resonator | – | 6.89 | 4.48 | 3.14
90000 kPa, quartz crystal resonator | – | 7.56 | 4.86 | 3.41
100000 kPa, Falling or rolling sphere viscometry | – | 8.23 | 5.27 | 3.71
100000 kPa, quartz crystal resonator | – | 8.14 | 5.25 | 3.66
